Our source for the inhibition values is ChEMBL document CHEMBL4813932, “Terpenoid Constituents of Perovskia artemisioides Aerial Parts with Inhibitory Effects on Bacterial Biofilm Growth” (2021).

A word on the inhibition: it is how much of the control response was suppressed. Read a low inhibition as little suppression.

Common to all, as to assay: microbe, parasite or virus in culture
What all share (format): functional

In assay [1] the test system is Escherichia coli. As to conditions: DSM 8579, time 48 hrs.
In assay [2] the test system is Escherichia coli. Particulars: DSM 8579, time 48 hrs. The source holds these as a separate data set.
Assay [3] has as its system Staphylococcus aureus. Particulars: ATCC 25923, time 48 hrs.
The test system of assay [4] is Pseudomonas aeruginosa. Particulars: ATCC 50071, time 48 hrs.
Assay [5] has as its system Staphylococcus aureus. As to conditions: ATCC 25923, time 48 hrs. This is another data set of the same source.
Assay [6] relates to Escherichia coli. As to conditions: DSM 8579, time 48 hrs. This is another data set of the same source.
The subject of assay [7] is Pectobacterium carotovorum. Particulars: ATCC 15713, time 48 hrs.
Assay [8] relates to Listeria monocytogenes. As to conditions: ATCC 7644, time 48 hrs.
Assay [9] concerns Pseudomonas aeruginosa. As to conditions: ATCC 50071, time 48 hrs. The source holds these as a separate data set.
The subject of assay [10] is Acinetobacter baumannii. Particulars: ATCC 19606 = CIP 70.34 = JCM 6841, time 48 hrs.
Assay [11] relates to Acinetobacter baumannii. Particulars: ATCC 19606 = CIP 70.34 = JCM 6841, time 48 hrs. This is another data set of the same source.
Assay [12] concerns Listeria monocytogenes. Particulars: ATCC 7644, time 48 hrs. This is another data set of the same source.
The test system of assay [13] is Pseudomonas aeruginosa. As to conditions: ATCC 50071, time 48 hrs. This is another data set of the same source.
The subject of assay [14] is Listeria monocytogenes. As to conditions: ATCC 7644, time 48 hrs. The source holds these as a separate data set.
Assay [15] deals with Pectobacterium carotovorum. Particulars: ATCC 15713, time 48 hrs. This is another data set of the same source.
Assay [16] relates to Acinetobacter baumannii. Particulars: ATCC 19606 = CIP 70.34 = JCM 6841, time 48 hrs. The source holds these as a separate data set.
In assay [17] the test system is Staphylococcus aureus. As to conditions: ATCC 25923, time 48 hrs. The source holds these as a separate data set.
Assay [18] has as its system Pectobacterium carotovorum. As to conditions: ATCC 15713, time 48 hrs. The source holds these as a separate data set.
Assay [19] concerns Pectobacterium carotovorum. Particulars: ATCC 15713, time 48 hrs. This is another data set of the same source.
Assay [20] has as its system Escherichia coli. Particulars: DSM 8579, time 48 hrs. The source holds these as a separate data set.
Assay [21] concerns Acinetobacter baumannii. As to conditions: ATCC 19606 = CIP 70.34 = JCM 6841, time 48 hrs. The source holds these as a separate data set.
Assay [22] concerns Listeria monocytogenes. As to conditions: ATCC 7644, time 48 hrs. This is another data set of the same source.
Assay [23] relates to Staphylococcus aureus. As to conditions: ATCC 25923, time 48 hrs. The source holds these as a separate data set.
For assay [24], the system named is Pseudomonas aeruginosa. Particulars: ATCC 50071, time 48 hrs. This is another data set of the same source.

The structures appear in SMILES notation.

For `CC(C)c1cc2c(c(O)c1O)[C@@]1(C(=O)O)CCCC(C)(C)[C@@H]1CC2` [CARNOSIC ACID], the results for the inhibition at 40 µg/mL in the assay with Escherichia coli [1] and in the assay on Escherichia coli [2] were 2.7% and 60%, respectively. Besides, the inhibition at 4 µg/mL was 33.5% in the assay on Staphylococcus aureus [3]; 27.7% in the assay on Pseudomonas aeruginosa [4]; 43.6% in assay [7]; 33.3% in the assay on Listeria monocytogenes [8]; 18.9% in the assay with Acinetobacter baumannii [10]; 0% with Listeria monocytogenes [14]. The inhibition at 4 µg/mL was determined as 41.3% in assay [18], 36.3% in the assay with Acinetobacter baumannii [21], 64.1% in the assay on Staphylococcus aureus [23] and 51.7% in the assay with Pseudomonas aeruginosa [24]. In addition, the inhibition at 8 µg/mL amounted to 35.5% in the assay with Staphylococcus aureus [5]; 42.7% in the assay with Pseudomonas aeruginosa [9]; 91.2% in the assay with Acinetobacter baumannii [11]; 55.6% in the assay with Listeria monocytogenes [12]; 83% with Pseudomonas aeruginosa [13]; 25.8% in assay [15]. The inhibition at 8 µg/mL was 57% with Acinetobacter baumannii [16], 83.7% in the assay with Staphylococcus aureus [17], 47.3% in [19] and 0% with Listeria monocytogenes [22]. In addition, the inhibition at 80 µg/mL in the assay on Escherichia coli [6] came out at 78.5%; with Escherichia coli [20], 10.7%.

On to `CC(C)c1cc2c(c(O)c1O)[C@@]13CCCC(C)(C)[C@@H]1[C@H](OC3=O)[C@@H]2O` [EPIROSMANOL], for which the inhibition at 40 µg/mL with Escherichia coli [1] and in the assay on Escherichia coli [2] was 0% throughout. The inhibition at 4 µg/mL in the assay on Staphylococcus aureus [3] stood at 0%; in the assay on Pseudomonas aeruginosa [4], 0%; in assay [7], 33.6%; in the assay with Listeria monocytogenes [8], 24.7%; with Acinetobacter baumannii [10], 26.3%; in the assay with Listeria monocytogenes [14] it was 0%. In addition, the inhibition at 4 µg/mL in assay [18] is 32.5%; with Acinetobacter baumannii [21] it was 8.9%; with Staphylococcus aureus [23], 68.4%; with Pseudomonas aeruginosa [24], 70.7%. The inhibition at 8 µg/mL with Staphylococcus aureus [5] stood at 23.6%; in the assay with Pseudomonas aeruginosa [9], 9.2%; with Acinetobacter baumannii [11], 56.9%; with Listeria monocytogenes [12] it was 55.6%; in the assay on Pseudomonas aeruginosa [13], 74.8%; in assay [15], 53.8%. The inhibition at 8 µg/mL with Acinetobacter baumannii [16] turned out to be 11.1%; in the assay with Staphylococcus aureus [17] it was 81.7%; in assay [19], 56.3%; in the assay with Listeria monocytogenes [22], 63.4%. Besides, the inhibition at 80 µg/mL in the assay on Escherichia coli [6] came out at 11.3%; in the assay with Escherichia coli [20], 0%.

Consider `CC(C)c1cc2c(c(O)c1O)[C@@]13CCCC(C)(C)[C@@H]1C[C@@H]2OC3=O` [CARNOSOL], for which the inhibition at 40 µg/mL with Escherichia coli [1] and with Escherichia coli [2] was 0% each time. For the same compound, the inhibition at 4 µg/mL with Staphylococcus aureus [3] stood at 68.2%; with Pseudomonas aeruginosa [4], 0%; in [7] it was 49.1%; in the assay with Listeria monocytogenes [8], 27.6%; in the assay with Acinetobacter baumannii [10], 43.2%; in the assay on Listeria monocytogenes [14] it was 17.2%. The inhibition at 4 µg/mL in [18] stood at 35.8%; in the assay on Acinetobacter baumannii [21] it was 7.1%; in the assay on Staphylococcus aureus [23], 95.9%; with Pseudomonas aeruginosa [24] it was 39%. Further, the inhibition at 8 µg/mL came out at 84.8% with Staphylococcus aureus [5]; 5.4% in the assay on Pseudomonas aeruginosa [9]; 47.2% in the assay with Acinetobacter baumannii [11]; 40.4% with Listeria monocytogenes [12]; 88.5% in the assay with Pseudomonas aeruginosa [13]; 100% in assay [15]. The inhibition at 8 µg/mL with Acinetobacter baumannii [16] was 49%; with Staphylococcus aureus [17], 100%; in assay [19], 69.1%; in the assay on Listeria monocytogenes [22] it was 46.7%. Further, the inhibition at 80 µg/mL in the assay with Escherichia coli [6] and in the assay on Escherichia coli [20] was 0% throughout.
